In patent US8952042B2, “FXR (NR1H4) binding and activity modulating compounds” (Phenex Pharmaceuticals AG, priority 2009, dated 2015):

Tests used:
[1] = Pharmacokinetics in rat after oral administration 5 mg/kg; assay type: in vivo, Male Sprague Dawley Rat; conditions: for AUC(0-inf) / Cmax / MRT last / Tmax / half-life / bioavailability / AUC(0-t): male, Sprague Dawley, plasma; for AUC(0-inf) / Cmax / MRT last / Tmax / half-life / AUC(0-t) / AUC Extrapolated / CI / Vd: oral 5 mg/kg; for bioavailability: oral 5 mg/kg vs i.v. 1 mg/kg, read-out: Absolute Bioavailability; for AUC(0-t): read-out: AUC(0-8)
Method: (§1) Compounds were applied perorally by gavage at 5 mg/kg each and by i.v. Injection at 1 mg/kg each to male 12 weeks old C57BI/6J or Sprague Dawley rats and plasma concentrations of the test items were determined by LC-MS/MS after time points as indicated. In the case of Cynomolgus monkeys ([…]), the dose was adjusted to 12 mg/kg p.o., no i.v. injection was given (FIG. 1a, 1b and Table 2).
(§2) A solution of 2.5 mg/mL of each test item was produced by diluting them in the vehicle, 0.5% Hydroxypropyl-Methylcellulose (w/v) in 20 mM phosphate buffered saline pH 7.4. The solutions were stirred overnight at room temperature and heated to 40° C. for 10 minutes, resulting in fully homogenous suspension. The application was performed by administrating the solution perorally to the mice, with an application volume of 5 mL/kg. For each time point three mice or rats were used. In case of the Cynomolgus monkeys blood samples were obtained by repeated vein puncture. Blood samples were treated with L1-heparin during collection procedure and stored on ice until centrifugation at 645 g (5 min, 4° C.). Plasma was harvested and kept at −20° C. until being assayed. To 50 μL of plasma sample 6 μL acetonitrile containing an internal standard was added. Samples were vigorously shaken and centrifuged for 10 minutes at 6000 g and 20° C. An aliquot of the particle-free supernatant was transferred to 200 μL sampler vials and subsequently subjected to LC MS/MS for quantification.

[2] = Plasma levels in mice after single dose gavage 5 mg/kg; assay type: in vivo; conditions: C57/bl6 mice, FIG. 1c, 5 mg/kg gavage
Method: Data represent the mean of 3 individual mouse plasma measurements.
as §1
as §2, with “To 50 μL of plasma sample 6 μL acetonitrile containing an internal standard was added. Samples were vigorously shaken and centrifuged for 10 minutes at 6000 g and 20° C.” left out

[3] = Pharmacokinetics in rat after intravenous administration 1 mg/kg; assay type: in vivo, Male Sprague Dawley Rat; conditions: for plasma levels as compared to GW4064: Male Sprague Dawley Rat, Table 3; for AUC(0-inf) / MRT last / Tmax / Vd / half-life / concentration at 0.083 hr / concentration at 0.25 hr / concentration at 0.5 hr / concentration at 1 hr / concentration at 2 hr / concentration at 4 hr / Cmax / AUC(0-t): male, Sprague Dawley, plasma; for AUC(0-inf) / MRT last / Tmax / Vd / half-life / concentration at 0.083 hr / concentration at 0.25 hr / concentration at 0.5 hr / concentration at 1 hr / concentration at 2 hr / concentration at 4 hr / AUC(0-t): iv; for AUC(0-inf) / MRT last / Tmax / Vd / half-life / concentration at 0.083 hr / concentration at 0.25 hr / concentration at 0.5 hr / concentration at 1 hr / concentration at 2 hr / concentration at 4 hr / Cmax / AUC(0-t) / AUC Extrapolated / CI: rat; for AUC(0-inf) / MRT last / Tmax / Vd / half-life / concentration at 0.083 hr / concentration at 0.25 hr / concentration at 0.5 hr / concentration at 1 hr / concentration at 2 hr / concentration at 4 hr / Cmax / AUC Extrapolated / CI: 1 mg/kg i.v.; for concentration at 0.5 hr: 0.50 hr; for Cmax: footnote: Co for Intravenous; for AUC(0-t): 1 mg/kg, read-out: #AUC(0-8)
Method: as §1, §2

[4] = target: T1, FXR ligand binding domain (Homo sapiens, UniProt Q96RI1); test: Mammalian One Hybrid (M1H) Gal4 reporter assay in HEK293 cells; assay type: cell-based; conditions: potency range
T1 construct: expressed in transfected cells; host or cells: HEK293 cells (DSMZ), transient transfection of pCMV-BD-FXR-LBD
T1 sequence (Q96RI1 187-472 isoform Q96RI1-2): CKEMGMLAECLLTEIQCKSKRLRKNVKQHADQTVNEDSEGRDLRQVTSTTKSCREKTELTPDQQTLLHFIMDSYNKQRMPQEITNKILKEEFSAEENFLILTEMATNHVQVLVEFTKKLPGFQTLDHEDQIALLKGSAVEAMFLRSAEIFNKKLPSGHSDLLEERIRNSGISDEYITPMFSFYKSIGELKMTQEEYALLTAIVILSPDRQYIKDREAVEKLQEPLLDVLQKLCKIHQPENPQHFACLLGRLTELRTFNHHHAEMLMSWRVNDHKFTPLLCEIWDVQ
Method: Determination of a ligand mediated Gal4 promoter driven transactivation to quantify ligand binding mediated activation of FXR was performed as follows: The cDNA part encoding the FXR ligand binding domain was cloned into vector pCMV-BD (Stratagene) as a fusion to the yeast GAL4 DNA binding domain under the control of the CMV promoter. The amino acid boundaries of the ligand binding domain were amino acids 187-472 of Database entry NM_005123 (RefSeq). The plasmid pFR-Luc (Stratagene) was used as the reporter plasmid, containing a synthetic promoter with five tandem repeats of the yeast GAL4 binding sites, driving the expression of the Photinus pyralis (American firefly) luciferase gene as the reporter gene. In order to improve experimental accuracy the plasmid pRL-CMV (Promega) was cotransfected. pRL-CMV contains the constitutive CMV promoter, controlling the expression of the Renilla reniformis luciferase. All Gal4 reporter gene assays were done in HEK293 cells (obtained from DSMZ, Braunschweig, Germany) grown in MEM with L-Glutamine and Earle's BSS supplemented with 10% fetal bovine serum, 0.1 mM nonessential amino acids, 1 mM sodium pyruvate, and 100 units Penicillin/[…] per mL at 37° C. in 5% CO2. Medium and supplements were obtained from Invitrogen. For the assay, […] were plated per well in 96 well plates in 100 μL per well MEM without Phenol Red and L-Glutamine and with Earle's BSS supplemented with 10% charcoal/dextran treated FBS (HyClone, South Logan, Utah), 0.1 mM nonessential amino acids, 2 mM glutamine, 1 mM sodium pyruvate, and 100 units Penicillin/[…] per mL, incubated at 37° C. in 5% CO2. The following day the cells were >90% confluence. Medium was removed and cells were transiently transfected using 20 μL per well of a OptiMEM—polyethylene-imine-based transfection-reagent (OptiMEM, Invitrogen; Polyethyleneimine, Aldrich Cat No. 40, 827-7) including the three plasmids described above. MEM with the same composition as used for plating cells was added 2-4 h after addition of transfection mixture. Then compound stocks, prediluted in MEM were added (final vehicle concentration not exceeding 0.1%). Cells were incubated for additional 16 h before firefly and renilla luciferase activities were measured sequentially in the same cell extract using a Dual-Light-Luciferase-Assay system (Dyer et al., Anal. Biochem. 2000, 282, 158-161). All experiments were done in triplicates.

[5] = UV stability, irradiation at 366 nm on a DMSO thin film, LCMS; assay type: physicochemical; conditions: 366 nm emission, 250 μM in DMSO thin film, FIG. 3m
Method: A different, more rapid experimental setup was used to investigate a broader set of compounds in comparison to GW4064. The substances were dissolved in reagent grade DMSO (99.5%, Karl Roth) at a concentration of 250 μM. DMSO solution was spread over a silica glass slide to a depth of approximately 2 mm and irradiated using a UV lamp set to 366 nm emission (Benda Instruments, Wiesloch Germany) using an 8 W tube set approximately 2.5 cm from the target materials. The solution was sampled prior to irradiation (T=0 min) and at various intervals thereafter. Stocks and samples were maintained in foil wrapped tubes out of direct light. Samples were injected (2 μL) directly onto a LCMS System for analysis without any further preparation.

Compound | AUC(0-inf) [1] [ng·h/mL] | Cmax [1] [ng/mL] | MRT last [1] [min] | Tmax [1] [min] | half-life [1] [min] | bioavailability [1] [%] | AUC(0-t) [1] [ng·h/mL] | AUC Extrapolated [1] [%] | CI [1] [mL/min/kg] | Vd [1] [L/kg] | plasma levels as compared to GW4064 [2] | plasma levels as compared to GW4064 [3] | AUC(0-inf) [3] [ng·h/mL] | MRT last [3] [min] | Tmax [3] [min] | Vd [3] [L/kg] | half-life [3] [min] | concentration at 0.083 hr [3] [ng/mL] | concentration at 0.25 hr [3] [ng/mL] | concentration at 0.5 hr [3] [ng/mL] | also measured
O=C(O)c1cccc(C2CC2c2ccc(OCc3c(-c4c(Cl)cccc4Cl)noc3C3CC3)cc2Cl)c1 (racemic) [Example 4, 3-(2-(2-chloro-4-((5-cyclopropyl-3-(2,6-dichlorophenyl)isoxazol-4-yl)methoxy)phenyl)-cyclopropyl)benzoic acid] | 406 | 93.1 | 178 | 30 | 245 | 8.8 | 287 | 33.93 | 205.0343 | 72.49139 | substantially higher | substantially higher | 923 | 49.8 | 4.98 | 1.79 | 68.4 | 1190 | 749 | 451 | concentration at 1 hr [3]: 202 ng/mL; concentration at 2 hr [3]: 78.9 ng/mL; concentration at 4 hr [3]: 44.5 ng/mL; Cmax [3]: 1500 ng/mL; AUC(0-t) [3]: 850 ng·h/mL; AUC Extrapolated [3]: 7.94%; CI [3]: 18.0508 mL/min/kg; EC50 [4]: 0.01 to 0.1 µM
O=C(O)c1ccc(C2CC2c2ccc(OCc3c(-c4c(Cl)cccc4Cl)noc3C3CC3)cc2Cl)cc1 (racemic) [Example 12, 4-(2-(2-chloro-4-((5-cyclopropyl-3-(2,6-dichlorophenyl)isoxazol-4-yl)methoxy)phenyl)cyclopropyl)benzoic acid] | 681 | 210 | 145 | 30 | 167 | 30.9 | 570 | 16.32 | 122.39 | 29.44442 | substantially higher | substantially higher | 440 | 46.8 | 4.98 | 4.82 | 88.2 | 661 | 359 | 174 | concentration at 1 hr [3]: 84.6 ng/mL; concentration at 2 hr [3]: 37.7 ng/mL; concentration at 4 hr [3]: 19.2 ng/mL; Cmax [3]: 895 ng/mL; AUC(0-t) [3]: 399 ng·h/mL; AUC Extrapolated [3]: 9.28%; CI [3]: 37.8772 mL/min/kg; EC50 [4]: 0.01 to 0.1 µM; photostability compared to GW4064 [5]: higher photostability
